Data set [1] in a line: Toxicity assessment, cell survival of fibroblasts. Type of data set: cell-based. The following applies: human, fibroblasts (FF), increasing concentrations up to 1,000 ng/ml, 48 hours of exposure. On the procedure:
(§1) The chimeric peptides of the invention and the peptides from which they are derived were found safe, non-toxic, to normal cells such endothelial cells (BAEC; FIG. 9a) and fibroblasts (FF; FIG. 9B). Cells incubated with increasing concentrations (up to 1,000 ng/ml) of the chimeric peptide (black square), the haptide alone (white/empty circle) or the M-tide alone (white/empty square), maintained 100% survival. Cell survival was measured following 48 hours of exposure to the peptides.

A short description of data set [2]: Toxicity assessment, cell survival of endothelial cells. The format is cell-based. The following applies: bovine, endothelial cells (BAEC), increasing concentrations up to 1,000 ng/ml, 48 hours of exposure. On the procedure:
as §1

No end group written: not given here.

These results are taken from US8354111B2, “Stable cell binding chimeric peptides” (Hadasit Medical Research Services and Development Ltd., priority 2008, dated 2013).

Take “KTRWYSMKKTTMK [haptide, KTRWYSMKKTTMK, reference compound]”: the viability at 48 h in data set [1] and in data set [2] was 100% throughout.
With “KTRWYSMKKTTMKVFQKRLDGSVDFKK [chimeric peptide]”, the viability at 48 h in data set [1] and in data set [2] was 100% each time.
As to “VFQKRLDGSVDFKK [M-tide, VFQKR LDGSV DFKK]”, the viability at 48 h in data set [1] and in data set [2] was 100% throughout.

One may read the viability as a read-out of living cells in per cent, often relative to untreated cells. A high value points to better survival.
